Experimental data published in patent US8168596B2, “Use of cycloartane compounds for treating arthritis” (NuLiv Holding Inc., priority 2008, dated 2012).

Tests used:
[1] = tested on: MMP1; assay: Western blotting, kinase inhibitors on MMP1 protein expression induced by PMA in SW1353 cells; assay type: cell-based, human; conditions: UO126 10 μM, SP600125 25 μM, 24 h, then PMA 100 ng/mL 24 h
Description: Western blotting analysis was carried out based on the following procedure. Cells were washed and lysed in 0.2 mL of lysis buffer (1% NP-40, 50 mM Tris-HCl, pH 7.4, 180 mM NaCl, 1 mM EDTA, 1 mM PMSF, 1 mM NaF, 10 mM Na3VO4) for 30 min at 4° C. After centrifugation at 17500 g for 15 min, the supernatants of cell lysate were collected. Protein concentrations of the samples were measured using the bicinchoninic acid (BCA) protein assay kit according to the manufacturer's protocol (Pierce, Rockford, Ill., USA). Equal amounts of protein samples of concentrated conditioned medium (100 μg) or cell lysate supernatants (50 μg) were mixed with an appropriate volume of 4×SDS sampling buffer and separated on a 8% SDS-PAGE gel. The protein bands separated on the SDS-PAGE gel were blotted onto a polyvinylidene fluoride (PVDF) membrane. The blotted PVDF membrane was washed twice and blocked in freshly prepared Tris-buffered saline (TBS) containing 0.1% Tween-20 and 7% skim milk (TBST) for 2 hours at room temperature. The PVDF membrane was then incubated with a primary antibody against MMP1 protein (Santa Cruz Biotechnology, Santa Cruz, Calif.) for 18 hours at 4° C. Horseradish peroxidase-conjugated anti-goat antibody was used as the secondary antibody. Signals were visualized by an enhanced chemiluminescence kit (Clonetech, Palo Alto, Calif., USA) followed by exposure to X-ray films. […]

[2] = tested on: MMP1; conditions: UO126 10 μM, SP600125 25 μM, SB203580 5 μM, 24 h, then PMA 100 ng/mL 24 h
Description: The SW1353 cells were grown at 37° C. in a humidified incubator under 5% CO2 and 95% air in the culture medium as described above. The SW1353 cells were then sub-cultured into 6-well culture plates with serum free medium at an average amount of 2×10^5 cells per well and incubated for 24 hours. Then, the SW1353 cells were treated with 10 μM UO126 (MEK1-specific inhibitor), 25 μM, SP600125 (JNK-specific inhibitor), 5 μM SB203580 (p38-specific inhibitor), or 20 μM LY294002 (PI3K kinase inhibitor), and incubated for another 24 hours. Later, the SW1353 cells were treated with 100 ng/mL PMA and again incubated for 24 hours. Finally, the SW1353 cells were under cell extraction and the cell lysate was used for further luciferase analysis and western blotting analysis.
The SW1353 cells were grown at 37° C. in a humidified incubator under 5% CO2 and 95% air in the culture medium as described above. The SW1353 cells were then sub-cultured into 24-well culture plates and cultured for 24 hours. […] Following cell extraction, the cell lysate was centrifuged at 4° C., 20000 g for 30 minutes and then transferred to a 1.5 ml-microcentrifuge tube. Then, 100 μl buffer A (0.1 mM luciferin) and 350 μl buffer B (1 M MgSO4, 1 M Hepes (pH 7.8), 0.1 M ATP) were added into the microcentrifuge tube. The luciferase activity of final mixture was measured by a luminometer for 30 seconds.

luciferase activity (control group 1 fold, PMA-only group 8 fold) [2]: 2.6 fold
Structure (SMILES): N#CC(=C(/N)Sc1ccccc1N)/C(C#N)=C(/N)Sc1ccccc1N [UO126]
protein expression by western blotting (effect of kinase inhibitors on MMP1 protein expression induced by PMA) [1]: significantly reduced
